# US20140073631A1 (priority 2012, published 2014)
# Read-outs that look alike come from different tables or passages of the source.
# Assays:
# [1] = test system: Bacillus anthracis; test: microbe, parasite or virus in culture; format: cell-based; conditions: Bacillus anthracis; read-out: MIC90
# [2] = test system: Francisella tularensis; test: microbe, parasite or virus in culture; format: cell-based; conditions: Francisella tularensis
# [3] = test system: Y. pestis C092; format: in vivo, BALB/c mice; conditions: 21 days
# [4] = test system: F. tularensis SCHU S4; parameters: species or system BALB/c mice; conditions: mouse, in vivo
# [5] = test system: Burkholderia pseudomallei; test: microbe, parasite or virus in culture; format: cell-based
# [6] = test system: B. anthracis; test: microbe, parasite or virus in culture; format: cell-based; conditions: Bacillus anthracis, read-out: MIC B. anthracis
# [7] = test system: B. mallei; test: microbe, parasite or virus in culture; format: cell-based; conditions: Burkholderia mallei, read-out: MIC B. mallei
# [8] = test system: B. pseudomallei; test: microbe, parasite or virus in culture; format: cell-based; conditions: Burkholderia pseudomallei, read-out: MIC B. pseudomallei
# [9] = test system: E. coli; test: microbe, parasite or virus in culture; format: cell-based; conditions: Escherichia coli, read-out: MIC E. coli
# [10] = test system: P. aeruginosa; test: microbe, parasite or virus in culture; format: cell-based; conditions: Pseudomonas aeruginosa, read-out: MIC P. aeruginosa
# [11] = test system: F. tularensis; test: microbe, parasite or virus in culture; format: cell-based; conditions: Francisella tularensis, read-out: MIC F. tularensis (Original Test)
# [12] = test system: Y. pestis; test: microbe, parasite or virus in culture; format: cell-based; conditions: Yersinia pestis, read-out: MIC Y. pestis
# [13] = test system: HIV-1; test: CEM-SS microtiter antiviral XTT cytoprotection assay; format: cell-based
# [14] = test system: CEM-SS cells
# [15] = test system: HIV-1 ROJO (low passage clinical strain); test: PBMC assay, virus production by reverse transcriptase activity; format: cell-based
# [16] = test system: fresh human peripheral blood mononuclear cells
# [17] = test system: Burkholderia mallei; test: microbe, parasite or virus in culture; format: cell-based
structure (smiles),measurement,setting,value
N=C(NC(=N)N1CCSCC1)NC1C2CC3CCC1(NC(=N)NC(=N)N1CCSCC1)CC3C2 (centres unmarked) [BVS-20A (XII)],MIC90,[1],≤ 4 µg/mL
same,MIC90,[2],< 4 µg/mL
"C[C@H]1COc2c(N3CCN(C)CC3)c(F)cc3c(=O)c(C(=O)O)cn1c23 [Levofloxacin, reference compound]",survival,[3],88.9%
same,survival,[4],100%
"CC(C)(O/N=C(\C(=O)N[C@@H]1C(=O)N2C(C(=O)[O-])=C(C[n+]3ccccc3)CS[C@H]12)c1csc(N)n1)C(=O)O [Ceftazidime, ceftazidime, reference compound]",MIC Range,[5],0.5 to 32 µg/mL
same,MIC50,[5]; Burkholderia pseudomallei,2 µg/mL
same,MIC90,[5]; Burkholderia pseudomallei,4 µg/mL
"O=C(O)c1cn(C2CC2)c2cc(N3CCNCC3)c(F)cc2c1=O [Ciprofloxacin, ciprofloxacin, reference compound]",MIC,[6],< 0.03 µg/mL
same,MIC,[7],1 µg/mL
same,MIC,[8],0.5 to 1 µg/mL
same,MIC,[9],0.015 to 0.06 µg/mL
same,MIC,[10],0.25 µg/mL
O=C(O)C1=C(c2ccc(F)c(N3CCNCC3)c2)N(C23CC4CCC(C2)C(C4)C3)C(=O)CC1 (centres unmarked) [BVS-97E (XIV)],MIC,[6],4 µg/mL
same,MIC,[7],> 64 µg/mL
same,MIC,[8],> 64 µg/mL
same,MIC,[11],0.5 to 4 µg/mL
same,MIC,[12],> 64 µg/mL
same,MIC,[9],16 to 32 µg/mL
same,MIC,[10],> 64 µg/mL
"Nc1ccn([C@H]2CC[C@@H](CO)O2)c(=O)n1 [DDC, di-deoxycytosine, reference compound]",% RED. IN VIRAL CPE,[13]; 0.00003 μM,1%
same,% RED. IN VIRAL CPE,[13]; 0.0001 μM,5%
same,% RED. IN VIRAL CPE,[13]; 0.00032 μM,6%
same,% RED. IN VIRAL CPE,[13]; 0.001 μM,4%
same,% RED. IN VIRAL CPE,[13]; 0.0032 μM,8%
same,% RED. IN VIRAL CPE,[13]; 0.01 μM,9%
same,% RED. IN VIRAL CPE,[13]; 0.032 μM,75%
same,% RED. IN VIRAL CPE,[13]; 0.1 μM,81%
same,% RED. IN VIRAL CPE,[13]; 0.32 μM,92%
same,% RED. IN VIRAL CPE,[13]; 1 μM,86%
same,% RED. IN VIRAL CPE,[13]; 3.2 μM,100%
same,% RED. IN VIRAL CPE,[13]; 10 μM,100%
same,% CELL VIABILITY,[14]; 0.00003 μM,100%
same,% CELL VIABILITY,[14]; 0.0001 μM,93%
same,% CELL VIABILITY,[14]; 0.00032 μM,99%
same,% CELL VIABILITY,[14]; 0.001 μM,100%
same,% CELL VIABILITY,[14]; 0.0032 μM,100%
same,% CELL VIABILITY,[14]; 0.01 μM,100%
same,% CELL VIABILITY,[14]; 0.032 μM,100%
same,% CELL VIABILITY,[14]; 0.1 μM,96%
same,% CELL VIABILITY,[14]; 0.32 μM,97%
same,% CELL VIABILITY,[14]; 1 μM,100%
same,% CELL VIABILITY,[14]; 3.2 μM,100%
same,% CELL VIABILITY,[14]; 10 μM,100%
"Cc1cn([C@H]2C[C@H](N=[N+]=[N-])[C@@H](CO)O2)c(=O)[nH]c1=O [AZT, reference compound]",RT ACTIVITY % VC,[15]; 0.0013 μM,104.6%
same,RT ACTIVITY % VC,[15]; 0.013 μM,77.3%
same,RT ACTIVITY % VC,[15]; 0.04 μM,81.7%
same,RT ACTIVITY % VC,[15]; 0.13 μM,32.3%
same,RT ACTIVITY % VC,[15]; 0.4 μM,3.8%
same,RT ACTIVITY % VC,[15]; 1.3 μM,8.8%
same,RT ACTIVITY % VC,[15]; 4 μM,0.7%
same,IC50,"[15]; ROJO in PBMC, RT activity",100 nM
same,CC50,[16],> 4000 nM
same,TOXICITY VALUES (XTT) % CC,[16]; 0.0013 μM,90.1%
same,TOXICITY VALUES (XTT) % CC,[16]; 0.013 μM,99.3%
same,TOXICITY VALUES (XTT) % CC,[16]; 0.04 μM,92.1%
same,TOXICITY VALUES (XTT) % CC,[16]; 0.13 μM,89.0%
same,TOXICITY VALUES (XTT) % CC,[16]; 0.4 μM,98.8%
same,TOXICITY VALUES (XTT) % CC,[16]; 1.3 μM,84.8%
same,TOXICITY VALUES (XTT) % CC,[16]; 4 μM,86.2%
"CC[C@H]1OC(=O)[C@H](C)[C@@H](O[C@H]2C[C@@](C)(OC)[C@@H](O)[C@H](C)O2)[C@H](C)[C@@H](O[C@@H]2O[C@H](C)C[C@H](N(C)C)[C@H]2O)[C@](C)(O)C[C@@H](C)CN(C)[C@H](C)[C@@H](O)[C@]1(C)O [Azithromycin, azithromycin, reference compound]",MIC Range,[17],0.0625 to 1 µg/mL
same,MIC50,[17]; Burkholderia mallei,0.5 µg/mL
same,MIC90,"[17]; Burkholderia mallei, read-out: MIC90",1 µg/mL
